Results from the supplement of paper PMC10307832.

Assays:
Test in all cases: relative viability (nuclei count vs DMSO), 5 days (fraction); higher = more cells survive
[1] = compound: C1COCCN1CC2=CC(=O)C(=CO2)OCCCCCSC3=C4C=CC(=CC4=NC=C3)C(F)(F)F [EHT 1864] + CC(=O)Nc1cccc(-n2c(=O)n(C3CC3)c(=O)c3c(Nc4ccc(I)cc4F)n(C)c(=O)c(C)c32)c1 [Trametinib] (partner 0.02 µM)
Method in brief: (§1)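 A single step with final 0.05% Triton X-100, 1% formaldehyde and 1 ug/ml Hoechst fixed the cells and stained nuclei 5 days after treatment. Lung cancer cell lines in 1536-well plates had been treated by pin tool the day after seeding with one drug alone or a fixed anchor-drug dose plus five library-drug doses (not always all listed) in √10 steps, and nuclei were counted on 4× images. Relative viability is the ratio of nuclei in treated wells to nuclei in vehicle wells, taken as the median of duplicate plates.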

[2] = compound: C1COCCN1CC2=CC(=O)C(=CO2)OCCCCCSC3=C4C=CC(=CC4=NC=C3)C(F)(F)F [EHT 1864] + O=C(c1cc(Cc2n[nH]c(=O)c3ccccc23)ccc1F)N1CCN(C(=O)C2CC2)CC1 [Olaparib] (partner 8 µM)
Method in brief: as §1

[3] = compound: C1COCCN1CC2=CC(=O)C(=CO2)OCCCCCSC3=C4C=CC(=CC4=NC=C3)C(F)(F)F [EHT 1864] + N=C(N)NC(=N)NCCc1ccccc1 [Phenformin] (partner 250 µM)
Method in brief: as §1

[4] = compound: C1COCCN1CC2=CC(=O)C(=CO2)OCCCCCSC3=C4C=CC(=CC4=NC=C3)C(F)(F)F [EHT 1864]
Method in brief: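 Five library-drug doses, separated by factors of √10, were pinned into 1536-well plates holding lung cancer cell lines after an overnight stay at 37 °C. Cells were fixed, permeabilised and Hoechst-stained in one step after 5 days without medium change, then imaged at 4×. Viability compares treated-well with vehicle-well nuclei, counted in MetaXpress, as a median across plates. Passing plates had control CV below 25% and at least one doubling.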

| Cell Line | relative viability ([1]; first compound 0.04 µM) | relative viability ([1]; first compound 0.4 µM) | relative viability ([1]; first compound 1.265 µM) | relative viability ([1]; first compound 4 µM) | relative viability ([2]; first compound 0.04 µM) | relative viability ([2]; first compound 0.4 µM) | relative viability ([2]; first compound 1.265 µM) | relative viability ([2]; first compound 4 µM) | relative viability ([3]; first compound 0.04 µM) | relative viability ([3]; first compound 0.4 µM) | relative viability ([3]; first compound 1.265 µM) | relative viability ([3]; first compound 4 µM) | relative viability ([4]; 0.04 µM) | relative viability ([4]; 0.4 µM) | relative viability ([4]; 1.265 µM) | relative viability ([4]; 4 µM) | relative viability ([1]; first compound 0.1265 µM) | relative viability ([2]; first compound 0.1265 µM) | relative viability ([3]; first compound 0.1265 µM) | relative viability ([4]; 0.1265 µM) |
| --- | --- | --- | --- | --- | --- | --- | --- | --- | --- | --- | --- | --- | --- | --- | --- | --- | --- | --- | --- | --- |
| SW 900 | 0.686 | 0.77 | 0.796 | 0.758 | 0.73 | 0.907 | 0.857 | 0.803 | 0.435 | 0.569 | 0.521 | 0.597 | 0.942 | 0.929 | 0.929 | 0.782 |  |  |  |  |
| NCI-H520 | 0.692 | 0.732 | 0.659 | 0.67 | 0.271 | 0.354 | 0.419 | 0.351 | 0.517 | 0.785 | 0.669 | 0.711 | 0.885 | 0.889 | 1.04 | 1.02 | 0.628 | 0.318 | 0.422 | 0.889 |
| EPLC-272H | 0.283 | 0.29 | 0.267 | 0.289 | 0.741 | 0.788 | 0.642 | 0.611 | 0.33 | 0.375 | 0.36 | 0.248 | 1.04 | 0.926 | 1.04 | 1.03 | 0.288 | 0.672 | 0.34 | 0.952 |
| UMC-11 | 0.727 | 0.692 | 0.74 | 0.967 | 0.379 | 0.426 | 0.383 | 0.356 | 0.356 |  | 0.324 | 0.31 | 1 | 0.901 | 0.985 | 1.17 | 0.496 | 0.383 | 0.275 | 0.804 |
| NCI-H1792 | 0.432 | 0.438 | 0.345 | 0.456 | 0.466 | 0.339 | 0.359 | 0.416 | 0.256 |  | 0.304 | 0.368 | 0.906 | 0.723 | 0.988 | 1 |  |  |  |  |
| NCI-H1993 | 0.579 | 0.5 | 0.485 | 0.543 | 1.17 | 0.971 | 0.966 | 1.05 | 0.537 | 0.488 | 0.534 | 0.508 | 0.965 | 0.957 | 1.03 | 0.873 |  |  |  |  |
| NCI-H596 | 0.796 | 0.812 | 0.738 | 0.857 | 0.773 | 0.8 | 0.781 | 0.777 | 0.75 | 0.753 | 0.571 | 0.813 | 0.947 | 1.02 | 0.929 | 0.991 | 0.658 | 0.719 | 0.523 | 0.829 |
| NCI-H1944 | 0.426 | 0.42 | 0.39 | 0.387 | 0.376 | 0.392 | 0.416 | 0.367 | 0.233 | 0.224 | 0.191 | 0.199 | 1.09 | 1 | 1.01 | 0.879 |  |  |  |  |
